Source: paper PMC8197214, “8a, a New Acridine Antiproliferative and Pro-Apoptotic Agent Targeting HDAC1/DNMT1” (International Journal of Molecular Sciences, 2021)

Biological target: DNMT1 (Homo sapiens, UniProt P26358)
Experiment: biolayer interferometry (Octet K2), His-tagged DNMT1 on NTA biosensor
Assay type: binding

Chain of DNMT1 (P26358 whole entry): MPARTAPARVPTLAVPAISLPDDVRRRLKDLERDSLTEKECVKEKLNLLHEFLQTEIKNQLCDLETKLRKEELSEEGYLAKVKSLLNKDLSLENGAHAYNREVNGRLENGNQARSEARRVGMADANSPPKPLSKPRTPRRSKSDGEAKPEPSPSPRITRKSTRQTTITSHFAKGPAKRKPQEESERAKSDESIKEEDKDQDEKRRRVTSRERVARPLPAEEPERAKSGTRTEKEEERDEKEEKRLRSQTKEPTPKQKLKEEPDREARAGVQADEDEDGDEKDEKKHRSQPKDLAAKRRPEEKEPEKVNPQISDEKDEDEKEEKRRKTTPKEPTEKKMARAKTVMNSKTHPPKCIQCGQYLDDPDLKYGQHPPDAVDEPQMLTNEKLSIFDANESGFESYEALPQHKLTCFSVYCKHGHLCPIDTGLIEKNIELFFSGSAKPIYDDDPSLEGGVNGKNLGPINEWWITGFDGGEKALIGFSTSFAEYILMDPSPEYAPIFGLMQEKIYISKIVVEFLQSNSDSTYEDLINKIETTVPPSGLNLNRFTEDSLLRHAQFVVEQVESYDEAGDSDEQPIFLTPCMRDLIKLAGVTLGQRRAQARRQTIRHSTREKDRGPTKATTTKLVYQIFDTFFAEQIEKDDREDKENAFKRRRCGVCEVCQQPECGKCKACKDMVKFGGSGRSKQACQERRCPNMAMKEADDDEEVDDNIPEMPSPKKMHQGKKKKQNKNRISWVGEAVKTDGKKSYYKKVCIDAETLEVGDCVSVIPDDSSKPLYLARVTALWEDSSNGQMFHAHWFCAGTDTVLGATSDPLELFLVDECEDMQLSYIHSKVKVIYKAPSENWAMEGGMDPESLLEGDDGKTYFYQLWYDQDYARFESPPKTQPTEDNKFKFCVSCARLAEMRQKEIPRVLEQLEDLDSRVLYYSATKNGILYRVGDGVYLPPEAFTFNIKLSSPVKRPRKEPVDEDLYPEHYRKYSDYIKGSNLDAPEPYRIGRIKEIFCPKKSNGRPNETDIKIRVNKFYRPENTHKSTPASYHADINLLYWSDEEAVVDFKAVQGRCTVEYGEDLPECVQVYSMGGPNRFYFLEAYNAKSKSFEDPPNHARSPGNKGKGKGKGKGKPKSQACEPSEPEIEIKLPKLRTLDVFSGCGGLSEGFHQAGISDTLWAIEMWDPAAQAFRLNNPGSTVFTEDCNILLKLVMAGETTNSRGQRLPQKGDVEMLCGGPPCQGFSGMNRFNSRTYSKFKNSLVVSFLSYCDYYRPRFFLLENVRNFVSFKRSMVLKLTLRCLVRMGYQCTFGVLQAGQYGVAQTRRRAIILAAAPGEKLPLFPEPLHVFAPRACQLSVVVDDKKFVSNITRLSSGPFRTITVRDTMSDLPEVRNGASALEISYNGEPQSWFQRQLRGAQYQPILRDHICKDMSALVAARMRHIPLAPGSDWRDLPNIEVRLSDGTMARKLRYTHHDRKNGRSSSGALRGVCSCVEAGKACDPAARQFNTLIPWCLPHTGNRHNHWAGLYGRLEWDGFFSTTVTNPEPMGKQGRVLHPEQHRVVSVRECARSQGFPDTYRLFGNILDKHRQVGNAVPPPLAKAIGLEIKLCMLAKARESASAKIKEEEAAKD

## Cc1cccc2c(NCc3ccc(C(=O)Nc4ccccc4N)cc3)c3ccccc3nc12 [8a, N-(2-aminophenyl)-4-(((4-methylacridin-9-yl)amino)methyl) benzamide]
  Kd: 1.9 nM
